In ChEMBL document CHEMBL1201862, “PubChem BioAssay data set” (2004):
Active and inactive are the calls of the source.

What was measured:
[1] = biological target: T1, Carboxy-terminal domain RNA polymerase II polypeptide A small phosphatase 1 (Homo sapiens, UniProt Q9GZU7); experiment: CTDSP1 inhibitors, concentration-response, biochemical, absorbance readout, ultra-high-throughput screen actives (AID 540297); format: functional
T1 sequence (Q9GZU7 whole entry): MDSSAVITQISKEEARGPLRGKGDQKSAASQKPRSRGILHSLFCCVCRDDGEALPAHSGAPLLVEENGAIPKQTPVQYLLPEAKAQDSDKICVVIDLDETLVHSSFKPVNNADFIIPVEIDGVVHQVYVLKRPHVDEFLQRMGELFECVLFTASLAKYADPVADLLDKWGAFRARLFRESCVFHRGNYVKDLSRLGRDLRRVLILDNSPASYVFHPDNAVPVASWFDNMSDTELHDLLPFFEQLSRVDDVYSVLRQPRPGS

Caspase-6 = biological target: T2, Caspase-6 (Homo sapiens, UniProt P55212); experiment: inhibition of CASP6 peptide cleavage – biochemical, VEID-R110 fluorescence, cherry-pick, dose response (AID 720632)
T2 sequence (P55212 whole entry): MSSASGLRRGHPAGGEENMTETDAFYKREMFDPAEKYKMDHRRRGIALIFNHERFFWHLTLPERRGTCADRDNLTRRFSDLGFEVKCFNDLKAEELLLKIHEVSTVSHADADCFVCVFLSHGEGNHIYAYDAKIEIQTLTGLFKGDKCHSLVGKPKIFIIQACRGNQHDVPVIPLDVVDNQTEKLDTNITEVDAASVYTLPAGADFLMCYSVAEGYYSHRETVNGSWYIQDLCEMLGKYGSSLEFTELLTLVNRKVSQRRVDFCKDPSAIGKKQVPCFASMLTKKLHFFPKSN

[2] = HIV-1 Vif–A3G interaction blockers – biochemical, TR-FRET, GST-Vif 1-94, biotin-A3G peptide, dose response retest, primary screen (AID 1117319); format: functional;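 note: TR-FRET signal of purified GST-Vif binding a biotinylated A3G peptide; inhibitors lower the FRET signal by blocking Vif and A3G binding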
[3] = growth inhibition of yeast DHODH-expressing 3D7 parasites – SYBR Green, dry powder samples, dose response (AID 1159570); format: functional, cell-based;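 note: parasite growth measured after 72 hours of compound exposure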
[4] = toxicity to human HepG2 hepatoma cells – cell-based, plate reader, dry powder samples, cytotoxicity control, dose response (AID 1159569); format: functional;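 note: inhibitor potency with signal falling toward the positive control level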
[5] = P. falciparum Dd2 growth inhibitors, dose response, SYBR Green, cherry-picked samples (AID 1159567); format: functional, cell-based
[6] = Dd2 malaria parasite growth inhibition potency – SYBR Green, dry powder samples, dose response (AID 1159566); format: functional, cell-based;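 note: potency for growth inhibition with lower SYBR green DNA signal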
[7] = toxicity to human hepatoma HepG2 cells – cell-based, cherry-picked samples, cytotoxicity control, dose response (AID 1159577); format: functional
[8] = growth inhibition of PfATP4-mutant resistant parasites – NITD609-resistant line, SYBR Green, dry powder, dose response (AID 1159571); format: functional, cell-based;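 note: parasites synchronized at ring stage by sorbitol before testing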
[9] = Trypanosoma cruzi growth suppression in host cells – NIH3T3 host cells, beta-gal luminescence, confirmation (AID 2044); format: functional, cell-based;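 note: intracellular parasites grown in NIH/3T3 mouse fibroblasts as host cells; luminescent beta-galactosidase reporter signal from transgenic T. cruzi replicating inside host cells; inhibitors lower the luminescence signal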
[10] = NIH3T3 cell viability loss – ATP luminescence, mouse fibroblasts, counter-screen, dose response (AID 2010); format: functional, cell-based;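 note: cells exposed to compound for about 90 hours before reading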
Estrogen receptor beta [11] = biological target: T3, Estrogen receptor beta (Homo sapiens, UniProt Q92731);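 note: recombinant ER-beta bound to coactivator SRC1 peptide in presence of estradiol agonist; inhibitors block coactivator peptide binding and lower the FRET signal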
T3 sequence (Q92731 whole entry): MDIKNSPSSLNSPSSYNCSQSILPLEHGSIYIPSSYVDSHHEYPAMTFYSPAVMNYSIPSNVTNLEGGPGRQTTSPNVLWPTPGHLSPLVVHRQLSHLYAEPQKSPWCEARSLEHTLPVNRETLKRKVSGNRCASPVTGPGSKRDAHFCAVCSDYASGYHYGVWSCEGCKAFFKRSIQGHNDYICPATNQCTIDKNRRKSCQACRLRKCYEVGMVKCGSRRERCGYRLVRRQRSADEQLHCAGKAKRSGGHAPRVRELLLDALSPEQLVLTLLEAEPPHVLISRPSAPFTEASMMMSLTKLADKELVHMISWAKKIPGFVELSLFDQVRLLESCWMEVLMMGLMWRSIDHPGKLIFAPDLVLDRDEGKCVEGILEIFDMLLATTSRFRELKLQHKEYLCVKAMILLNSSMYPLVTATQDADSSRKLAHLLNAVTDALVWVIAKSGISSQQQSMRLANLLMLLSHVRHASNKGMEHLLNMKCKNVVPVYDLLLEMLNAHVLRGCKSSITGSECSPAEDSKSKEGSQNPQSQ

Estrogen receptor beta [12] = biological target: T3, Estrogen receptor beta; experiment: blockers of SRC-3 recruitment to ERβ – biochemical, ELISA, streptavidin-HRP readout, orthogonal assay, confirmation (AID 1060)
[13] = NIH-3T3 fibroblast cytotoxicity, dose response, cytotoxicity control, cell-based, fluorescence, Alamar Blue, secondary assay (AID 2327); format: functional;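 note: NIH-3T3 mouse fibroblasts cultured with fluconazole at 8 µg/mL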
BJ [14] = experiment: BJ-TERT fibroblast viability loss – cell-based, RAS-independent, luminescence, dose response (AID 1933); format: functional; conditions: Homo sapiens
BJ [15] = experiment: cells; format: functional, cell-based; conditions: Homo sapiens
[16] = fluconazole-exposed Candida albicans growth modulators – fluorescence, retest, confirmation (AID 2467); format: functional, cell-based
BJ [17] = experiment: BJ-TERT-LT-ST fibroblast viability loss – cell-based, RAS-independent, luminescence, dose response (AID 1935); format: functional; conditions: Homo sapiens;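 note: BJ fibroblasts immortalized with TERT plus LT and ST oncogenes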
[18] = DRD fibroblast viability loss – cell-based, non-viral oncogenic, luminescence, dose response (AID 1934); format: functional; conditions: Homo sapiens
[19] = biological target: FAD-linked sulfhydryl oxidase ALR (Homo sapiens, UniProt P55789); experiment: ALR-catalysed DTT oxidation blockers – biochemical, H2O2 detection, luminescence, cherry-pick, dose response (AID 493248)
FAD-linked sulfhydryl oxidase ALR, sequence (P55789 whole entry): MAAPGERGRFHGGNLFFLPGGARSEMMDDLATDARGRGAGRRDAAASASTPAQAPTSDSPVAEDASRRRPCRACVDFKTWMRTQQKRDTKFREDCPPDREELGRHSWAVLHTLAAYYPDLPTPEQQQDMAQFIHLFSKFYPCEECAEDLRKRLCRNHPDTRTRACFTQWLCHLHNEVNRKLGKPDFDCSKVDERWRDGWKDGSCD

[20] = HPDE-C7 pancreatic duct cell viability loss – fluorescence, HTS (AID 430); format: functional, cell-based; conditions: Homo sapiens
[21] = viability loss of HPDE-C7K cells – cell-based, fluorescence, HTS, primary screen (AID 431); format: functional; conditions: Homo sapiens
Aminopeptidase N = biological target: T4, Aminopeptidase N (Plasmodium falciparum FcB1/Columbia, UniProt O96935); experiment: malaria alanyl aminopeptidase activity blockers – biochemical, fluorogenic H-Leu-NHMec substrate, 1536-well (AID 1445); set-up: species or system Plasmodium falciparum 3D7, 3D7
T4 sequence (O96935 whole entry): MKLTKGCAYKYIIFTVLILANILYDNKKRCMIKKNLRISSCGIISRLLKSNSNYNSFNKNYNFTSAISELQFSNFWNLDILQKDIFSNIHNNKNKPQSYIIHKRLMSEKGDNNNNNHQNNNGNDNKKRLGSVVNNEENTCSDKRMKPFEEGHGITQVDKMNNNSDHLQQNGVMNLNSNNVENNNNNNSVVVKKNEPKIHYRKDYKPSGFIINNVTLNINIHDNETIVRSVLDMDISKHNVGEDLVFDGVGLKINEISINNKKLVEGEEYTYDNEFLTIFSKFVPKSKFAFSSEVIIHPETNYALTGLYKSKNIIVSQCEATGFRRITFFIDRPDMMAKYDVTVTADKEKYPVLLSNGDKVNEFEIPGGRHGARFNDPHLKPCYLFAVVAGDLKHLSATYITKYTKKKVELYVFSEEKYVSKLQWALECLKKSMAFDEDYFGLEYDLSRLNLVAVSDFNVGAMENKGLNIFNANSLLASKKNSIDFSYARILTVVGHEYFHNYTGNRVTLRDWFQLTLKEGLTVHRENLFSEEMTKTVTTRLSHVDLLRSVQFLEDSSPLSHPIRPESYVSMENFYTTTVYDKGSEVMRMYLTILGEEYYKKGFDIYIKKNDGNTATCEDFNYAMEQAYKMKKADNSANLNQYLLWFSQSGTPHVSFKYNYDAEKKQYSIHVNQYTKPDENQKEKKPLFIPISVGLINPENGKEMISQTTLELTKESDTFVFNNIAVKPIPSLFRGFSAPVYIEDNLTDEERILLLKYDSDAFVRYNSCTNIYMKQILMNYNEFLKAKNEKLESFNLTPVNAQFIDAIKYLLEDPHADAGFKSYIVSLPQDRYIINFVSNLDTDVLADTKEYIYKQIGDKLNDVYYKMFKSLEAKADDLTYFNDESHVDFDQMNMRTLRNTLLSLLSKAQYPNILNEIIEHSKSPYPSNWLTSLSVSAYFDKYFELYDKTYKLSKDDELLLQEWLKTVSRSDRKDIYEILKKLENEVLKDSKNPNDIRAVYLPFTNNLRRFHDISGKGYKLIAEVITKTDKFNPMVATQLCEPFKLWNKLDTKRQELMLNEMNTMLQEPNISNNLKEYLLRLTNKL

[22] = biological target: T5, Short transient receptor potential channel 4 (Mus musculus, UniProt Q9QUQ5); experiment: block of DAMGO-driven TRPC4 calcium entry – cell-based, HEK293 TRPC4/mu-opioid, Fluo-4 calcium, dose response (AID 434942); format: functional;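 note: potency of inhibitors blocking the TRPC4 calcium response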
T5 sequence (Q9QUQ5 whole entry): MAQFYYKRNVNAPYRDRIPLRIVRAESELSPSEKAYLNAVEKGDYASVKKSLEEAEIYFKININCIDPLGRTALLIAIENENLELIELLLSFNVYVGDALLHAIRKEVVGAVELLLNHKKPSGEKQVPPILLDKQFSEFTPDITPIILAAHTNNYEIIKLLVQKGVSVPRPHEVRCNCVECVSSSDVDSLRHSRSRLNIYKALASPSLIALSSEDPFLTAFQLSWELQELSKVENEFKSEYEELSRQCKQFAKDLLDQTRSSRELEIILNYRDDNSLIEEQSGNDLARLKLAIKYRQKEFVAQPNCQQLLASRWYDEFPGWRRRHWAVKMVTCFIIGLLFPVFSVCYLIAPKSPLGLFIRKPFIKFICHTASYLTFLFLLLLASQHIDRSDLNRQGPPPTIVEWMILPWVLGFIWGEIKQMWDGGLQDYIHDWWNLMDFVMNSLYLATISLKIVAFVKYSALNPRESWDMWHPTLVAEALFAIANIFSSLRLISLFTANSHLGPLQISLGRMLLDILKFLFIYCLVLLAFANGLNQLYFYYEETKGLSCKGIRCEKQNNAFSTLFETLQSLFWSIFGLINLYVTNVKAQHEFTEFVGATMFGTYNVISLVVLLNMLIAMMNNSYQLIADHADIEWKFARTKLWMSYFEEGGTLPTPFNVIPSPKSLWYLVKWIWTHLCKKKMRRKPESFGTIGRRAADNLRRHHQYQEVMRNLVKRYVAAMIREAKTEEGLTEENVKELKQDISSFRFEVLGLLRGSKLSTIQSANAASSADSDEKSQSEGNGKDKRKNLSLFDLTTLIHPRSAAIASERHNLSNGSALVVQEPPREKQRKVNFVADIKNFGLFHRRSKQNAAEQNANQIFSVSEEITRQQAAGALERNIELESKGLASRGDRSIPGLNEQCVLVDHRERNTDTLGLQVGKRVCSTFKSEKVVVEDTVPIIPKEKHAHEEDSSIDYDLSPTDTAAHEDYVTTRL

Estrogen receptor = biological target: T6, Estrogen receptor (Homo sapiens, UniProt P03372);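 note: potency for inhibiting coactivator peptide recruitment to the receptor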
T6 sequence (P03372 whole entry): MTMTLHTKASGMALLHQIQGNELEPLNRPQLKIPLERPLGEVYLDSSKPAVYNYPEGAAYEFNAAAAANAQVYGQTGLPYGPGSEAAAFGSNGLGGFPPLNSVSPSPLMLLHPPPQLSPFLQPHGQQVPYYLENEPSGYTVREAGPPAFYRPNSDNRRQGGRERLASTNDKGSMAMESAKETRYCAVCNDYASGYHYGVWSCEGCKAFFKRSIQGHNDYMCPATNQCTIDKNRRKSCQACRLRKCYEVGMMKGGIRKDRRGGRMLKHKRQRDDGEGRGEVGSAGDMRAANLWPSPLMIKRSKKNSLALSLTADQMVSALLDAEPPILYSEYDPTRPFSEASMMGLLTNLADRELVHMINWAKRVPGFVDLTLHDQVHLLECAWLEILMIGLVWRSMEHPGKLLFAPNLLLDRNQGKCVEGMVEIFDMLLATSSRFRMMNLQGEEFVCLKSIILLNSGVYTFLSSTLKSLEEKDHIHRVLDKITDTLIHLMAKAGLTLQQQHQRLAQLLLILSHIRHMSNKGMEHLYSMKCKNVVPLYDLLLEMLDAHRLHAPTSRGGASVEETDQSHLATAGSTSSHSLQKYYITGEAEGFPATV

[23] = viability of PTEN-deleted HCT116 cells – cell-based, HCT116 PTEN knockout, dose response (AID 1047); format: functional;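 note: HCT116 colon tumor cells with PTEN knocked out; cells exposed to compound for 60 hours before readout; potency for loss of cell viability measured by luminescence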
[24] = viability of HCT116 lacking mutant beta-catenin – cell-based, human colon tumor, dose response (AID 1045); format: functional;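 note: HCT116 colon tumor cells with beta catenin knocked out; cells exposed to compound for 60 hours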

O=C(Nc1cccnc1Cl)c1ccc(=O)oc1
IC50 [1]: 17.8 µM (active)
AC50 (Caspase-6): 22 µM (active)

CCOc1ccc(C2c3c(oc4ccccc4c3=O)C(=O)N2CCCN2CCOCC2)cc1 (stereo not given)
IC50 [2]: > 100 µM (active)

OC[C@H]1Nc2ccc(C#Cc3ccc(F)cc3)cc2[C@H]2[C@@H]1CCN2Cc1ccc2c(c1)OCO2
AC50 [3]: 4 µM (active)
AC50 [4]: 20.9 µM (active)
AC50 [5]: 2.75 µM (active)
AC50 [6]: 3.38 µM (active)
AC50 [7]: 26.2 µM (active)
AC50 [8]: 3.18 µM (active)

O=C(C1=C[C@H](C2CCCCC2)C[C@H](OCCCCO)O1)N1CCN(Cc2ccc3c(c2)OCO3)CC1
EC50 [9]: < 0.1 µM (active)
EC50 [10]: > 60 µM (not active)
EC50 (cells): 0.058 µM (active)

CCOc1[nH]c(/N=C/c2ccco2)c(C#N)c1C#N
IC50 (Estrogen receptor beta [11]): 18.5 µM (active)
IC50 (Estrogen receptor beta [12]): 18.2 µM (not active)

CCN(CC)c1ccc(/C=C/c2cccc[n+]2C)c(OC)c1
EC50 [13]: > 150 µM (inactive)
EC50 (BJ [14]): 7.77 µM (active)
EC50 (BJ [15]): 17.9 µM (active)
EC50 [16]: 0.34 µM (active)
EC50 [9]: < 0.1 µM (active)
EC50 [10]: > 60 µM (not active)
EC50 (BJ [17]): 13.7 µM (inconclusive)
EC50 [18]: 15.2 µM (active)
AC50 [19]: 0.452 µM (active)
EC50 (cells): 0.023 µM (active)

CCc1c(C)nc(SCC(=O)CC(=O)OC(C)C)c(C#N)c1C
EC50 [20]: 7.84 µM (active)
EC50 [21]: 10.7 µM (active)

O=C(O)CC1SC(N/N=C/c2ccc(-c3ccc(Cl)c([N+](=O)[O-])c3)o2)=NC1=O (stereo not given)
IC50 (Aminopeptidase N): 54.1 µM (active)
AC50 (Caspase-6): 25.1 µM (active)

O=[N+]([O-])c1ccc(CN2CCN(Cc3c[nH]c4ccccc34)CC2)cc1
EC50 [9]: < 0.1 µM (active)
EC50 [10]: > 60 µM (not active)
EC50 [22]: 5.96 µM (active)
EC50 (cells): 0.249 µM (active)

O=C(Cn1c(=O)n(Cc2ccco2)c(=O)c2c3c(sc21)CCCCC3)Nc1ccccc1
IC50 (Estrogen receptor): 7.24 µM (active)
IC50 (Estrogen receptor beta [11]): 6.57 µM (active)
IC50 (Estrogen receptor beta [12]): 24.9 µM (not active)
IC50 [1]: 4.93 µM (active)

O=C1C2CCCN2C(c2ccccc2)N1c1nccs1 (stereo not given)
IC50 [2]: > 100 µM (active)

Oc1ccc(Br)cc1-c1nc2cnccn2c1NC1CCCC1
EC50 [20]: 17.3 µM (active)
EC50 [21]: 12.5 µM (active)
EC50 [23]: 38.9 µM (active)
EC50 [24]: 36.4 µM (active)
AC50 [19]: 1.55 µM (active)

CC(=O)N1CCc2cc(S(=O)(=O)NCCC(=O)Nc3cccc(C)c3C)ccc21
IC50 [2]: > 100 µM (active)

COc1ccc2c3c(n(C)c2c1)[C@H](CO)N(CC1CCOCC1)CC31CCN(Cc2nccs2)CC1
AC50 [3]: 0.845 µM (active)
AC50 [4]: > 100 µM (inactive)
AC50 [5]: 1.46 µM (active)
AC50 [6]: 1.1 µM (active)
AC50 [8]: 1.32 µM (active)

CCc1cccc(NC(=O)CN(C)S(=O)(=O)c2cccc3nsnc23)c1
IC50 [2]: > 100 µM (active)

Cc1csc2ncc(C(=O)N3c4ccccc4CC3C)c(=O)n12 (stereo not given)
IC50 (Estrogen receptor beta [11]): > 50 µM (not active)
